Common to all, as to assay type: cell-based
The target in assay [1] is T1, human somatostatin receptor subtype 2 (Homo sapiens, UniProt P30874).
T1 construct: expressed in transfected cells
Briefly: Functional assay for SSTR2 agonists (HTRF cAMP). The note with it: CHO-K1 cells stably expressing human SST2; NKH477-stimulated cAMP; 20 min at 37 C; read-out: hSST2 cAMP Avg EC50. An outline of the steps: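 CHO-K1 cells stably expressing human SSTR2 treated with compound (typically 0-10,000 nM final) for 20 min at 37 °C. Lysate cAMP measured by HTRF (665/620 nm ratio), converted via standard curve; EC50 from cAMP vs concentration.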
(In general: Time-resolved FRET reads energy transfer from a long-lived donor to a nearby acceptor.)

Another assay has as its target T2, SST2 (Homo sapiens, UniProt P30874).
T2 construct: host or cells: PathHunter CHO-K1 SST2 cells
In words: PathHunter CHO-K1 SST2 Internalization Assay. The note with it: PathHunter CHO-K1 SST2 cells; 90 min at 37 C; luminescence; read-out: Internalization EC50. Put shortly:
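CHO-K1 cells expressing human SST2, 2500 cells/well, grown 48 h, then exposed 90 min at 37 C to 11-point 1:3 NDC dilutions (final top 10 uM). Beta-Glo luminescence after 60 min at room temperature; four-parameter IC50, duplicate mean, background-corrected.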

The test system of assay [2] is NCI-H524 human small cell lung cancer cells. In words: H524 assay: inhibition of cell proliferation (CellTiter Glo). The note with it: 2 h treatment, washout, additional 70 h incubation. Put shortly:
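NCI-H524 cells were exposed for 2 h to NDC in an 11-point two-fold series starting at 1 uM. The drug was then washed out and cells grew a further 70 h. CellTiter Glo luminescence gave % inhibition versus untreated control, and IC50 came from a four-parameter nonlinear regression.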

T2 sequence (P30874 whole entry): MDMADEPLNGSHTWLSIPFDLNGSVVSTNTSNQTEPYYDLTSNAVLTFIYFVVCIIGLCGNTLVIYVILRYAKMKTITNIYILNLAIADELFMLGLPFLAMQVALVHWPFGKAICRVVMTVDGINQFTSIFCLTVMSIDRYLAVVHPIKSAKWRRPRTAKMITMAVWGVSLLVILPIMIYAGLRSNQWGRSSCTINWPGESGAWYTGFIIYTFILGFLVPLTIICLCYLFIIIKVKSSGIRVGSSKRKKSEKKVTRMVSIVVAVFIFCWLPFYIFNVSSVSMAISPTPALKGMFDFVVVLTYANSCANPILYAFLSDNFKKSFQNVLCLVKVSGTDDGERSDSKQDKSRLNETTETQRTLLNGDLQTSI
T1 sequence (P30874 whole entry): as above

As for `CC[C@H](C)[C@@H]([C@@H](CC(=O)N1CCC[C@H]1[C@H](OC)[C@@H](C)C(=O)N[C@H](C)[C@@H](O)c1ccccc1)OC)N(C)C(=O)[C@@H](NC(=O)[C@H](C(C)C)N(C)C(=O)OCc1ccc(NC(=O)[C@H](CCCNC(N)=O)NC(=O)[C@@H](NC(=O)c2cc(C(=O)NCC(=O)O)cc(N(C)CCOCCC(=O)NCCNc3ncc(-c4cc(C)cc(F)c4)c(N4CCC(N)CC4)c3-c3nc4ccc(Cl)cc4[nH]3)c2)C(C)C)cc1)C(C)C` [Compound 158], the EC50 (in general, the concentration at which the effect is half-maximal) in assay [1] came to 0.15 nM; at SST2 it was 5.1 nM; in assay [2] it was 40 nM.

As to `CC[C@H](C)[C@@H]([C@@H](CC(=O)N1CCC[C@H]1[C@H](OC)[C@@H](C)C(=O)N[C@H](C)[C@@H](O)c1ccccc1)OC)N(C)C(=O)[C@@H](NC(=O)[C@H](C(C)C)N(C)C(=O)OCc1ccc(NC(=O)[C@H](CCCNC(N)=O)NC(=O)[C@@H](NC(=O)C[C@@H](N)C(=O)NCCOCCC(=O)NCCNc2ncc(-c3cc(C)cc(F)c3)c(N3CCC(NC)CC3)c2-c2nc3ccc(Cl)cc3[nH]2)C(C)C)c(O[C@@H]2O[C@H](C(=O)O)[C@@H](O)[C@H](O)[C@H]2O)c1)C(C)C` [Compound 121], the EC50 in assay [1] was 0.14 nM; at SST2, 5.3 nM; in assay [2], 19 nM.

With `CC[C@H](C)[C@@H]([C@@H](CC(=O)N1CCC[C@H]1[C@H](OC)[C@@H](C)C(=O)N[C@H](C)[C@@H](O)c1ccccc1)OC)N(C)C(=O)[C@@H](NC(=O)[C@H](C(C)C)N(C)C(=O)OCc1ccc(NC(=O)[C@H](C)NC(=O)[C@@H](NC(=O)CCOCCC(=O)NCCNc2ncc(-c3cc(C)cc(F)c3)c(N3CCC(N)CC3)c2-c2nc3cc(F)c(F)cc3[nH]2)C(C)C)c(O[C@@H]2O[C@H](C(=O)O)[C@@H](O)[C@H](O)[C@H]2O)c1)C(C)C` [Compound 108], the EC50 in assay [1] is 0.18 nM; at SST2 it was 8.2 nM; in assay [2] it was 52 nM.

Take `CC[C@H](C)[C@@H]([C@@H](CC(=O)N1CCC[C@H]1[C@H](OC)[C@@H](C)C(=O)N[C@H](C)[C@@H](O)c1ccccc1)OC)N(C)C(=O)[C@@H](NC(=O)[C@H](C(C)C)N(C)C(=O)OCc1ccc(NC(=O)[C@H](CCCNC(N)=O)NC(=O)[C@@H](NC(=O)CCOCCC(=O)NCCNc2ncc(-c3cc(C)cc(F)c3)c(N3CCC(N)CC3)c2-c2nc3ccc(Cl)cc3[nH]2)C(C)C)c(O[C@@H]2O[C@H](C(=O)NCCS(=O)(=O)O)[C@@H](O)[C@H](O)[C@H]2O)c1)C(C)C` [Compound 208]: the EC50 in assay [1] came out at 0.062 nM; at SST2, 3.1 nM; in assay [2] it was 8.9 nM.

Take `CC[C@H](C)[C@@H]([C@@H](CC(=O)N1CCC[C@H]1[C@H](OC)[C@@H](C)C(=O)N[C@H](C)[C@@H](O)c1ccccc1)OC)N(C)C(=O)[C@@H](NC(=O)[C@H](C(C)C)N(C)C(=O)OCc1ccc(NC(=O)[C@H](CCCNC(N)=O)NC(=O)[C@@H](NC(=O)CCOCCC(=O)NCCNc2ncc(-c3cc(C)cc(F)c3)c(N3CCC(N)CC3)c2-c2nc3ccc(Cl)cc3[nH]2)C(C)C)cc1C(=O)NOC)C(C)C` [Compound 87]: the EC50 was 0.1 nM in assay [1], 4.6 nM on SST2 and 600 nM in assay [2].

In the case of `CC[C@H](C)[C@@H]([C@@H](CC(=O)N1CCC[C@H]1[C@H](OC)[C@@H](C)C(=O)N[C@H](C)[C@@H](O)c1ccccc1)OC)N(C)C(=O)[C@@H](NC(=O)[C@H](C(C)C)N(C)C(=O)OCc1ccc(NC(=O)[C@H](CCCNC(N)=O)NC(=O)C2(NC(=O)CCOCCC(=O)NCCNc3ncc(-c4cc(C)cc(F)c4)c(N4CCC(N)CC4)c3-c3nc4ccc(Cl)cc4[nH]3)CCC2)c(O[C@H]2O[C@H](C(=O)NCC(=O)O)[C@@H](O)[C@H](O)[C@H]2O)c1)C(C)C` [Compound 210], the EC50 turned out to be 0.051 nM in assay [1], 2.8 nM at SST2 and 2300 nM in assay [2].

The record behind these values is patent US20260007758A1, “SO[…]-2 RECEPTOR (SST2R) NON-PEPTIDE DRUG CONJUGATES AND USES THEREOF” (Crinetics Pharmaceuticals, Inc., priority 2024, published 2026).
